These results are taken from the pKa sets of Baltruschat and Czodrowski (2020).

Take `Oc1cc2ccccc2cc1C1=[NH+]CCN1`: the pKa (as a rule, the pH at which an ionisable group is half protonated) (acidic group) was 7.01.

The compound `COc1ccc(O)c(C[NH2+]C(CO)C(=O)O)c1` (stereo not given) registered a pKa (acidic group) of 2.1.

Turning to `[S-]c1ncnc2nccnc12`, the pKa (basic group) is 6.81.

Turning to `N/N=C(\N)c1ncnc2nc[nH]c12`, the pKa (acidic group) worked out at 10.

`O=c1oc2cc(O)ccc2cc1-c1ccccc1` had a pKa (acidic group) of 7.8.

With `Nc1nc[nH+]c(S)c1N`, the pKa (acidic group) is 2.21.

Turning to `CC(=O)N1CCNc2ncnc(C)c21`, for the setting “basic group”, the pKa came to 5.26.

`Cc1cc(Cc2cc([N+](=O)[O-])ccc2[O-])cc(C)c1O` showed a pKa (acidic group) of 10.9.

Where the note is “basic group”, `COc1ccc(-c2ncc(-c3ccccc3)o2)cc1` yielded a pKa of 1.25.

On to `O=C([O-])C[NH+](CCNS(=O)(=O)c1ccccc1)CC(=O)[O-]`, for which the pKa (acidic group) worked out at 7.82.

For the setting “basic group”, `NNC(=O)c1cc[nH+]cc1` gave a pKa of 1.67.

With `CCN(CC)CCOC(=O)c1ccc2ccccc2c1`, the pKa (basic group) was found to be 7.52.

`CCCCNc1ccnc([S-])n1` displayed a pKa (basic group) of 11.1.

`Oc1ccccc1CN1CCCNCCCNCCC1` had a pKa (basic group) of 9.87.

In turn, `O=C1OCC(O)=C1O` had a pKa (acidic group) of 4.4.

The compound `O=c1[nH]c2ccccc2c(=O)o1` displayed a pKa (acidic group) of 8.25.

Take `N#CC(CC(=O)O)c1ccccc1` (stereo not given): the pKa (acidic group) turned out to be 3.79.

Compound `CCC1C(=O)COC1=O` (stereo not given) yielded a pKa (acidic group) of 4.29.

In turn, `O=C([O-])C[NH+](CC(=O)[O-])Cc1nc2ccccc2[nH]1` gave a pKa (basic group) of 3.95.

Regarding `CN(C)CCc1nnn[n-]1`, under “basic group”, the pKa was determined as 9.39.

`O=S(=O)(Nc1ccccc1)c1ccc(Cl)cc1` came in with a pKa (acidic group) of 7.98.

In turn, `[SH2+]c1ccc2ncccc2c1` displayed a pKa (basic group) of 3.95.

As for `CC(C)(C)c1cc(O)[nH]n1`, where the note is “basic group”, the pKa was determined as 2.9.

For the compound `Cn1ncc2c(N)ncnc21`, the pKa (basic group) amounted to 4.32.

As to `NCCCCCCCCC(=O)[O-]`, the pKa (basic group) turned out to be 11.

Compound `Cc1c(N)ccc2c1-c1ccccc1C2` came in with a pKa (basic group) of 4.83.

With `CCCC[NH2+]CCN`, under “basic group”, the pKa came out at 7.53.

For the compound `O=c1oc2c(O)c(O)cc3c(=O)oc4c(O)c(O)cc1c4c23`, under “acidic group”, the pKa turned out to be 6.59.

Compound `CN[C@H]1C(C)[C@@H]1[NH2+]C` (stereo not given in full) showed a pKa (basic group) of 5.68.

`O=C([O-])/C=C/c1ccccc1O` gave a pKa (acidic group) of 9.63.

`CCOc1cccc(C)c1C(=O)O` came in with a pKa (acidic group) of 3.51.

Compound `O=C(C[n+]1cccc2c3ccccc3ccc21)c1ccccc1` showed a pKa (acidic group) of 11.3.

Compound `[NH3+]CCc1c[nH]cn1` came in with a pKa (basic group) of 6.08.

Where the note is “basic group”, `CCN(CC)CCCC(C)Nc1cc(OC)cc2cccnc12` (stereo not given) gave a pKa of 10.3.

Turning to `C[C@]1(N)C[C@@H]1N`, the pKa (basic group) was 9.06.

Under “acidic group”, `O=C([O-])[C@@H]1O[C@H](Oc2ccc3[nH+]ccc(O)c3c2)[C@@H](O)[C@H](O)[C@H]1O` displayed a pKa of 3.7.

In the case of `Cc1ccccc1NC(C)(C)C`, the pKa (basic group) is 6.49.

`[NH3+]CCCCCC(=O)O` had a pKa (acidic group) of 4.37.

Regarding `COc1ccc(C(=S)Nc2ccccc2)cc1`, the pKa (acidic group) is 11.3.

As to `CC(C)C(=O)CC(=O)C(C)C`, under “acidic group”, the pKa worked out at 9.86.

With `Cc1ccc2c(c1)CCN2`, the pKa (basic group) was found to be 5.

For the setting “acidic group”, `CC(=O)c1ccc(O)cc1` displayed a pKa of 7.9.

Under “acidic group”, `COc1ccc2c(c1)nnn2O` registered a pKa of 5.07.

`Cc1cc(C(C)C)ccc1O` displayed a pKa (acidic group) of 10.6.

Take `O=[N+]([O-])c1cccc(-c2ccc(O)cc2)c1`: the pKa (acidic group) was 9.14.

In the case of `Cc1cc(C(=O)O)ccc1Br`, for the setting “acidic group”, the pKa was 4.03.

With `Oc1nccc[nH+]1`, where the note is “acidic group”, the pKa was 2.24.

Compound `COc1cccc(O)c1` returned a pKa (acidic group) of 9.51.

On to `Cc1n[nH]c2c1c(=O)n(C)c(=O)n2C`, for which the pKa (acidic group) worked out at 9.83.

As for `COc1ccc(-c2nc3ncncc3[nH]2)c(OC)c1`, the pKa is, setting by setting: (acidic group) 9.92; (basic group) 3.09.

`O=C1CCC[C@H]2[C@H]3C[C@@H](CN12)[C@H]1CCCCN1C3` showed a pKa (basic group) of 9.2.

Regarding `NC(=O)NOCCC(N)C(=O)[O-]` (stereo not given), for the setting “basic group”, the pKa turned out to be 8.9.

In the case of `Nc1c2ccccc2nc2c1ccc1c([N+](=O)[O-])cccc12`, the pKa (basic group) is 7.1.

Take `CCCO`: the pKa (acidic group) stood at 16.

In the case of `c1coc(C2CN3CCC2CC3)c1` (stereo not given), the pKa (basic group) is 10.

`N=C(N)NOCC(=O)[O-]` showed a pKa (basic group) of 7.58.

In the case of `Oc1onc2c1CCNCC2`, for the setting “basic group”, the pKa turned out to be 9.6.

Where the note is “basic group”, `Cc1cc(-c2ccccc2)n[n+](CCN2CCOCC2)c1N` gave a pKa of 4.84.

For the setting “acidic group”, `COC(=O)/C=C(/C)O` had a pKa of 9.48.

As for `On1nnc2c(Cl)cccc21`, the pKa (acidic group) was 3.9.

As to `N#CC(C#N)=NNc1ccccc1`, the pKa by setting is: (acidic group) 6.55; (basic group) -0.82.

Compound `CC(C)(C)C(=O)NO` had a pKa (acidic group) of 9.59.

`CC(C)(C)OOCC(=O)O` gave a pKa (acidic group) of 3.49.

In turn, `[O-]c1nc([O-])c2[nH]cnc2n1` yielded a pKa (basic group) of 11.1.

`CCCCCCCCN(CC(C)O)CC(C)O` (stereo not given) came in with a pKa (basic group) of 8.3.

On to `Cc1ccc(NC(=S)c2cccc(Br)c2)cc1`, for which the pKa (acidic group) came to 10.9.

For the setting “basic group”, `CCOC(=O)CCCc1ccccn1` had a pKa of 5.32.

Turning to `C#CCNN`, the pKa (basic group) amounted to 5.46.
